These results are taken from patent US11576915B2, “Method for treating pulmonary arterial hypertension and associated pulmonary arterial hypertension and daily dosing” (Altavant Sciences GmbH, priority 2019, dated 2023).

A short description of series [1]: Example 3 healthy subjects QD vs BID: KAR5417 plasma levels. The series is classed as in vivo, human. The protocol:
(§1) 24 healthy subjects received 800 mg total daily oral doses of RVT-1201 or placebo (PBO), either as single (800 mg QD) or divided (400 mg BID) doses for 14 days across two cohorts (9 active: 3 PBO per cohort). KAR5417 plasma levels and change from Baseline (BSL) PD biomarker data (plasma and urine 5-HIAA) were compared between QD and BID cohorts at day 14. Safety and tolerability were assessed via adverse event (AE) monitoring and laboratory, vital signs and ECG assessments.

Series [2] has as its system PAH. Nature of the series: monocrotaline prevention model of PAH. The following applies: rat, oral 100 mg/kg/day. The series is classed as in vivo.
Series [3] is described as follows: Example 2 healthy human subjects: safety and tolerability. The series is classed as in vivo. As to conditions: doses required to achieve clinically-relevant AUC. As to the method: (§2) Healthy human subjects (n=˜120) may receive RVT-1201.
(§3) Mean change in plasma 5-HIAA may be about −53% from Day 1 to Day 14, whereas placebo may be about +26%. Interpolation of KAR5417 AUC between 400 mg and 800 mg BID regimens may show 500-600 mg BID in humans will achieve the target exposure associated with efficacy in rat models.

For series [4], the system named is serotonin biosynthesis. As to the kind of experiment: Example 2 healthy human subjects: plasma 5-HIAA. The series is classed as in vivo. As to conditions: 400 mg BID, Day 1 to Day 14. The protocol:
as §3

The subject of series [5] is PAH. As to the kind of experiment: SUGEN-hypoxia treatment model for established PAH. The format is in vivo. The following applies: rat, oral 100 mg/kg/day.
The test system of series [6] is PAH. Nature of the series: PAH rodent models (Example 3 background). The format is in vivo, rat. The protocol:
(§4) TPH1 is the rate-limiting enzyme for peripheral biosynthesis of serotonin (5HT), which has been implicated as a causative factor in PAH. RVT-1201 decreased pulmonary vessel wall thickness in 2 PAH rodent models indicating potential to halt/reverse pulmonary remodeling in humans. The median effective dose (100 mg/kg QD) in PAH rat models yielded a ˜35% reduction in 5-HT biosynthesis (based on urinary 5-HIAA, a metabolite of 5HT). […] The example compares reductions in 5-HIAA levels following QD and BID dosing in healthy subjects.

Series [7] deals with serotonin biosynthesis. Nature of the series: Example 3 healthy subjects QD vs BID: plasma and urine 5-HIAA. The series is classed as in vivo, human. The following applies: day 14, change from baseline. The protocol:
as §1

The subject of a further series is serotonin biomarkers. As to the kind of experiment: divided dose pharmacodynamic studies in rats (QD vs BID vs TID). The series is classed as in vivo, rat. As to the method:
as §4

Series [8] is described as follows: Example 2 healthy human subjects: pharmacokinetics. The format is in vivo. As to the method:
as §2, §3

The test system of series [9] is serotonin biosynthesis. Nature of the series: rat serotonin biomarkers (serum serotonin, urinary 5-HIAA). The format is in vivo. As to conditions: 30 to 300 mg/kg/day, dose-dependent. As to the method:
RVT-1201 (30 to 300 mg/kg/day) may yield a dose-dependent reduction in rat serum serotonin (−27% to −96%) and 24 h urinary output of 5-HIAA (−45% to −56%). HIAA is a metabolite that reflects total serotonin biosynthesis.

Series [10] in a line: Example 3 healthy subjects QD vs BID: safety and tolerability. The series is classed as in vivo, human. The protocol:
as §1

Series [11] in a line: polymorph stability and shelf life. The series is classed as physicochemical. As to conditions: particularly at temperatures of less than 95° C. The text has this: The above-referenced compound can be used to prevent or treat PAH/APAH in either an amorphous or crystalline form. Two different polymorph crystalline forms are identified by x-ray powder diffraction patterns set forth in FIG. 1 (Form 3) and FIG. 2 (Form 1) as well as Tables 1 and 2 (Form 3) and Tables 3 and 4 (Form 1).

Regarding `Nc1nc(O[C@H](c2ccc(Cl)cc2-c2ccccc2)C(F)(F)F)cc(N2CCC3(CC2)CN[C@H](C(=O)O)C3)n1` [KAR5417, (S)-8-(2-amino-6-((R)-1-(5-chloro-[1,1′-biphenyl]-2-yl)-2,2,2-trifluoroeth-oxy)pyrimidin-4-yl)-2,8-diazaspiro[4.5]decane-3-carboxylic acid], the “KAR5417 mean pAUC0-24” value in series [1] (RVT-1201 400 mg BID oral, day 14) came out at 10400 ng*h/mL. Moreover, in series [1] (human, plasma, RVT-1201 800 mg QD oral, day 14, read-out: KAR5417 mean AUC0-24), the AUC(0-t) was 9180 ng·h/mL.

`CCOC(=O)[C@@H]1CC2(CCN(c3cc(O[C@H](c4ccc(Cl)cc4-c4ccccc4)C(F)(F)F)nc(N)n3)CC2)CN1` [RVT-1201, (S)-ethyl 8-(2-amino-6-((R)-1-(5-chloro-[1,1′-biphenyl]-2-yl)-2,2,2-trifluoroethoxy)pyrimidin-4-yl)-2,8-diazaspiro[4.5]decane-3-carboxylate]: the “block or ameliorate PAH” value in the series on PAH [2] and with PAH [5] was “may block or ameliorate PAH” each time. In addition, the tolerability entry in series [3] is on record as “well tolerated”; in series [10] (both dose regimens (800 mg QD, 400 mg BID), 14 days), “generally well-tolerated”. Moreover, the “mean change in plasma 5-HIAA” value in the series with serotonin biosynthesis [4] is on record as “about −53%”. The “pulmonary vessel wall thickness” value in the series with PAH [6] (2 PAH rodent models) is given as “decreased”. The compound further gave a median effective dose with PAH [6] (PAH rat models, QD) of 100 mg/kg. Moreover, in the series with PAH [6] (PAH rat models, at median effective dose 100 mg/kg QD), the “reduction in 5-HT biosynthesis (based on urinary 5-HIAA)” value is ~35%. The “mean (±SD) reduction in plasma 5-HIAA” value in the series on serotonin biosynthesis [7] (400 mg BID) is 49.9 (9.52) %; in the series with serotonin biosynthesis [7] (800 mg QD), 40.0 (6.32) %. Further, the “mean (±SD) reduction in urinary 5-HIAA” value with serotonin biosynthesis [7] (400 mg BID) is on record as 55.5 (10.3) %; with serotonin biosynthesis [7] (800 mg QD), 45.8 (6.59) %. Also, the “QD dosing versus more frequent dosing, lowering of 5-HT” value in the series with serotonin biomarkers (healthy rats, QD vs BID vs TID) is “as effective as more frequent dosing”. For the same compound, in the series on serotonin biomarkers (rats, 75 mg/kg/day), the “once daily administration versus BID or TID regimens” value is recorded as “comparable to BID or TID regimens”. Also, the serotonin reduction in the series with serotonin biomarkers (rats, 75 mg/kg/day, divided dose studies) is given as ~65%. Moreover, the “human dose achieving target exposure associated with efficacy in rat models” value in [8] (BID, interpolation of KAR5417 AUC between 400 mg and 800 mg BID regimens) is 500 to 600 mg. In series [8] (healthy human subjects, standard meals, single doses 200 to −1200 mg), the “AUC following single doses versus dose” value is reported as “proportional to dose”. Moreover, the “reduction in 24 h urinary output of 5-HIAA” value in the series on serotonin biosynthesis [9] is −45% to −56%. Further, the “reduction in rat serum serotonin” value in the series with serotonin biosynthesis [9] is listed as −27% to −96%. Moreover, the “overall incidence of GI-related AEs” value came to 78% in series [10] (QD group (800 mg QD), 14 days) and 33% in series [10] (divided dose group (400 mg BID), 14 days). Also, the treatment-related withdrawals entry in [10] (either cohort) was “no treatment-related withdrawals”.

With `CCOC(=O)[C@@H]1CC2(CCN(c3cc(O[C@H](c4ccc(Cl)cc4-c4ccccc4)C(F)(F)F)nc(N)n3)CC2)CN1` [crystalline Form 3, (S)-ethyl 8-(2-amino-6-((R)-1-(5-chloro-[1,1′-biphenyl]-2-yl)-2,2,2-trifluoroethoxy)pyrimidin-4-yl)-2,8-diazaspiro[4.5]decane-3-carboxylate], the “stability and shelf life compared to crystalline Form 1” value in [11] was “substantially greater stability and shelf life”.
